This passage reports MIC results from patent publication US20230114728A1 (Venatorx Pharmaceuticals, Inc., priority 2019, published 2023).

What all share (experiment): Broth microdilution MIC in iron-depleted CAMHB (IDM)
Format in all cases: cell-based
For orientation: In broth dilution the organism is exposed to a series of concentrations in liquid medium.

One assay deals with P. aeruginosa CDC-0110. As to conditions: Pseudomonas aeruginosa, CDC0110, read-out: Minimum Inhibitory Concentration, P. aeruginosa CDC-0110. The essentials:
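MIC is the lowest well showing no visible growth after 16-20 h at 37 °C, starting from 2-8×10^5 CFU/mL in 2-fold serial compound dilutions. Medium: cation-adjusted Mueller Hinton broth iron-depleted with Chelex 100, supplemented back with Ca, Mg and Zn, pH 7.3; CLSI protocol.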

The subject of assay [1] is A. baumannii CDC-0045 producing TEM-1D, OXA-23, and OXA-69. As to conditions: Acinetobacter baumannii, read-out: Minimum Inhibitory Concentration, CDC-0045.
For assay [2], the system named is P. aeruginosa CDC-0090 producing KPC-5, OXA-50, and PAO. As to conditions: Pseudomonas aeruginosa, read-out: Minimum Inhibitory Concentration, P. aeruginosa CDC-0090. A digest of the protocol:
(§1)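 Iron-limited medium: CAMHB chelated with Chelex 100, cations restored, pH 7.3. CLSI-based microdilution, 2-8×10^5 CFU/mL inoculum, 37° C for 16-20 h (P. aeruginosa) or 20-24 h (A. baumannii). Endpoint is no visible growth.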

Assay [3] deals with P. aeruginosa (ΔmexAB-oprM). As to conditions: Pseudomonas aeruginosa, read-out: Minimum Inhibitory Concentration, P. aeruginosa ΔmexAB-OprM. A digest of the protocol:
as §1

Assay [4] deals with A. baumannii CDC-0036 OXA-65, and OXA-24. As to conditions: Acinetobacter baumannii, read-out: Minimum Inhibitory Concentration, CDC-0036. A digest of the protocol: as §1
Assay [5] concerns A. baumannii CDC-0033 producing NDM-1, and OXA-94. As to conditions: Acinetobacter baumannii, read-out: Minimum Inhibitory Concentration, CDC-0033. The essentials:
as §1

For assay [6], the system named is A. baumannii CDC-0083 producing NDM-1, PER-7, OXA-23, and OXA-69. As to conditions: Acinetobacter baumannii, read-out: Minimum Inhibitory Concentration, CDC-0083. A digest of the protocol: as §1
Assay [7] relates to P. aeruginosa CDC-0054 producing VIM-4, OXA-50, and PAO. As to conditions: Pseudomonas aeruginosa, read-out: Minimum Inhibitory Concentration, P. aeruginosa CDC-0054. A digest of the protocol:
as §1

The subject of assay [8] is A. baumannii IL123 (ABΔ3-ARAEcPore). As to conditions: Acinetobacter baumannii, read-out: Minimum Inhibitory Concentration, IL-2123. A digest of the protocol: as §1
Another assay deals with A. baumannii ATCC 19606. As to conditions: Acinetobacter baumannii, ATCC19606, read-out: Minimum Inhibitory Concentration, ATCC 19606. The essentials:
as §1

For the next assay, the system named is P. aeruginosa ATCC 35151. As to conditions: Pseudomonas aeruginosa, ATCC35151; iron-depleted MHB (IDM); hyper-permeable strain; read-out: Minimum Inhibitory Concentration, P. aeruginosa ATCC 35151. A digest of the protocol:
as §1

Assay [9] relates to P. aeruginosa CDC-0095 producing OXA-50, and PAO. As to conditions: Pseudomonas aeruginosa, read-out: Minimum Inhibitory Concentration, P. aeruginosa CDC-0095. A digest of the protocol: as §1
The next assay concerns A. baumannii ATCC 17978. As to conditions: Acinetobacter baumannii, ATCC17978, read-out: Minimum Inhibitory Concentration, ATCC 17978. The essentials:
as §1

The subject of the next assay is P. aeruginosa ATCC 27853. As to conditions: Pseudomonas aeruginosa, ATCC27853, read-out: Minimum Inhibitory Concentration, P. aeruginosa ATCC 27853. The essentials: as §1

In brackets after ≈: the same amount, converted by molar mass.

Take `O=C(O)c1c(F)ccc2c1OB(O)[C@@H](NC(=O)C(NC(=O)N1CCN(CCBr)C(=O)C1=O)c1c(F)cc(O)c(O)c1F)C2` (stereo partly drawn) [Example 38, (3R)-3-(2-(4-(2-bromoethyl)-2,3-dioxopiperazine-1-carboxamido)-2-(2,6-difluoro-3,4-dihydroxyphenyl)acetamido)-7-fluoro-2-hydroxy-3,4-dihydro-2H-benzo[e][1,2]oxaborinine-8-carboxylic acid]: the MIC with P. aeruginosa CDC-0110 is 0.5 to 1 µg/mL (≈ 0.743 to 1.49 µM); in assay [1], 0.5 to 1 µg/mL (≈ 0.743 to 1.49 µM); in assay [2], 2 to 4 µg/mL (≈ 2.97 to 5.94 µM); in assay [3] it was 0.25 µg/mL (≈ 0.371 µM); in [4] it was 2 to 4 µg/mL (≈ 2.97 to 5.94 µM); in assay [5] it was 2 to 4 µg/mL (≈ 2.97 to 5.94 µM). Also, the MIC in assay [6] is 0.5 to 1 µg/mL (≈ 0.743 to 1.49 µM); in assay [7], 8 to 16 µg/mL (≈ 11.9 to 23.8 µM); in assay [8], 2 to 4 µg/mL (≈ 2.97 to 5.94 µM); with A. baumannii ATCC 19606, 0.25 µg/mL (≈ 0.371 µM); with P. aeruginosa ATCC 35151, 0.25 µg/mL (≈ 0.371 µM); in [9], 8 to 16 µg/mL (≈ 11.9 to 23.8 µM). The MIC was 0.25 µg/mL (≈ 0.371 µM) in the assay on A. baumannii ATCC 17978 and 2 to 4 µg/mL (≈ 2.97 to 5.94 µM) in the assay on P. aeruginosa ATCC 27853.

For the compound `CCN1CCN(C(=O)NC(C(=O)N[C@H]2Cc3ccc(F)c(C(=O)O)c3OB2O)c2cc(F)c(O)c(O)c2Cl)C(=O)C1=O` (stereo partly drawn) [Example 42, (3R)-3-(2-(2-chloro-5-fluoro-3,4-dihydroxyphenyl)-2-(4-ethyl-2,3-dioxopiperazine-1-carboxamido)acetamido)-7-fluoro-2-hydroxy-3,4-dihydro-2H-benzo[e][1,2]oxaborinine-8-carboxylic acid], the MIC in the assay on P. aeruginosa CDC-0110 is 0.25 µg/mL (≈ 0.409 µM); in assay [1] it was 0.25 µg/mL (≈ 0.409 µM); in assay [2], 0.25 µg/mL (≈ 0.409 µM); in assay [3], 0.25 µg/mL (≈ 0.409 µM); in assay [4], 0.5 to 1 µg/mL (≈ 0.819 to 1.64 µM); in assay [5] it was 0.5 to 1 µg/mL (≈ 0.819 to 1.64 µM). Moreover, the MIC was 0.25 µg/mL (≈ 0.409 µM) in assay [6]; 0.5 to 1 µg/mL (≈ 0.819 to 1.64 µM) in assay [7]; 0.5 to 1 µg/mL (≈ 0.819 to 1.64 µM) in [8]; 0.25 µg/mL (≈ 0.409 µM) in the assay on A. baumannii ATCC 19606; 0.25 µg/mL (≈ 0.409 µM) in the assay on P. aeruginosa ATCC 35151; 0.5 to 1 µg/mL (≈ 0.819 to 1.64 µM) in [9]. Further, the results for the MIC in the assay on A. baumannii ATCC 17978 and in the assay with P. aeruginosa ATCC 27853 were 0.25 µg/mL (≈ 0.409 µM) and 0.5 to 1 µg/mL (≈ 0.819 to 1.64 µM), respectively.
